The source made the active and inactive calls. How the calls were made is not given here.

These results are taken from PubChem BioAssay AID1259407 (Chemical Carcinogenesis Research Information System (CCRIS), 2018).

In this data set the test system is CCRIS mutagenicity, Ames/micronucleus/aberration tests. The data set is described as follows: CCRIS mutagenicity studies.
Setting [1] is: Test System: AMES SALMONELLA TYPHIMURIUM, Strain/Indicator: TA98, Metabolic Activation: NONE, Method: PREINCUBATION
Setting [2] is: Test System: AMES SALMONELLA TYPHIMURIUM, Strain/Indicator: TA100, Metabolic Activation: NONE, Method: PREINCUBATION
[3] abbreviates: Test System: AMES SALMONELLA TYPHIMURIUM, Strain/Indicator: TA100, Metabolic Activation: NONE, Method: STANDARD PLATE.
[4] abbreviates: Test System: AMES SALMONELLA TYPHIMURIUM, Strain/Indicator: TA100, Metabolic Activation: S-9, Method: STANDARD PLATE.
[5] abbreviates: Test System: AMES SALMONELLA TYPHIMURIUM, Strain/Indicator: TA1535, Metabolic Activation: NONE, Method: PREINCUBATION

`CCOC(=O)c1ccccc1C(=O)OCC`: the mutagenic call (Test System: AMES SALMONELLA TYPHIMURIUM, Strain/Indicator: TA98, Metabolic Activation: HAMSTER, LIVER, S-9, AROCLOR 1254 (10%), Method: PREINCUBATION) is “inactive; negative”; the mutagenic call under setting [1] was “inactive; negative”; the mutagenic call (Test System: AMES SALMONELLA TYPHIMURIUM, Strain/Indicator: TA98, Metabolic Activation: RAT, LIVER, S-9, AROCLOR 1254 (10%), Method: PREINCUBATION) was “inactive; negative”; the mutagenic call (Test System: AMES SALMONELLA TYPHIMURIUM, Strain/Indicator: TA100, Metabolic Activation: HAMSTER, LIVER, S-9, AROCLOR 1254 (10%), Method: PREINCUBATION) was “inactive; negative”; the mutagenic call under setting [2] was “inactive; negative”; the mutagenic call under setting [3] is “active; positive”. Besides, the mutagenic call is “inactive; negative” (Test System: AMES SALMONELLA TYPHIMURIUM, Strain/Indicator: TA100, Metabolic Activation: RAT, LIVER, S-9, AROCLOR 1254 (10%), Method: PREINCUBATION); “inactive; negative” under setting [4]; “inactive; negative” (Test System: AMES SALMONELLA TYPHIMURIUM, Strain/Indicator: TA1535, Metabolic Activation: HAMSTER, LIVER, S-9, AROCLOR 1254 (10%), Method: PREINCUBATION); “inactive; negative” under setting [5]; “active; positive” (Test System: AMES SALMONELLA TYPHIMURIUM, Strain/Indicator: TA1535, Metabolic Activation: NONE, Method: STANDARD PLATE); “inactive; negative” (Test System: AMES SALMONELLA TYPHIMURIUM, Strain/Indicator: TA1535, Metabolic Activation: RAT, LIVER, S-9, AROCLOR 1254 (10%), Method: PREINCUBATION). The mutagenic call runs as follows: (Test System: AMES SALMONELLA TYPHIMURIUM, Strain/Indicator: TA1535, Metabolic Activation: S-9, Method: STANDARD PLATE) “inactive; negative”; (Test System: AMES SALMONELLA TYPHIMURIUM, Strain/Indicator: TA1537, Metabolic Activation: HAMSTER, LIVER, S-9, AROCLOR 1254 (10%), Method: PREINCUBATION) “inactive; negative”; (Test System: AMES SALMONELLA TYPHIMURIUM, Strain/Indicator: TA1537, Metabolic Activation: NONE, Method: PREINCUBATION) “inactive; negative”; (Test System: AMES SALMONELLA TYPHIMURIUM, Strain/Indicator: TA1537, Metabolic Activation: RAT, LIVER, S-9, AROCLOR 1254 (10%), Method: PREINCUBATION) “inactive; negative”.

`CC(C)Nc1nc(Cl)nc(NCC(=O)O)n1`: the mutagenic call (End Point: In vivo micronucleus, Test System: Bone marrow erythrocytes, Species: Mouse, Strain/Sex: Crl:CD-1, Route: Gavage) was “inactive; negative; proportion of pces per 1000 erythrocytes depressed”.

`Nc1ccc(/C=C/c2ccccc2)cc1`: the mutagenic call by setting is: (Test System: AMES SALMONELLA TYPHIMURIUM, Strain/Indicator: TA98(1,8-DNP6), Metabolic Activation: NONE, Method: STANDARD PLATE) “inactive; negative”; (Test System: AMES SALMONELLA TYPHIMURIUM, Strain/Indicator: TA98(1,8-DNP6), Metabolic Activation: S-9, Method: STANDARD PLATE) “active; positive”; (Test System: AMES SALMONELLA TYPHIMURIUM, Strain/Indicator: TA98, Metabolic Activation: RAT LIVER S9, AROCLOR, Method: STANDARD PLATE) “active; positive”; (Test System: AMES SALMONELLA TYPHIMURIUM, Strain/Indicator: TA98, Metabolic Activation: RAT, LIVER, S-9, AROCLOR 1254, Method: STANDARD PLATE) “active; positive”; (Test System: AMES SALMONELLA TYPHIMURIUM, Strain/Indicator: TA98, Metabolic Activation: S-9, Method: STANDARD PLATE) “active; positive”; under setting [3], “inactive; negative”. The mutagenic call by setting is: (Test System: AMES SALMONELLA TYPHIMURIUM, Strain/Indicator: TA100, Metabolic Activation: RAT, LIVER, S9, AROCLOR, Method: STANDARD PLATE) “active; positive”; (Test System: AMES SALMONELLA TYPHIMURIUM, Strain/Indicator: TA100, Metabolic Activation: RAT, LIVER, S-9, AROCLOR 1254, Method: STANDARD PLATE) “active; positive”; (Test System: AMES SALMONELLA TYPHIMURIUM, Strain/Indicator: TA100, Metabolic Activation: RAT, LIVER, S-9, PHENOBARBITAL, Method: STANDARD PLATE) “active; positive”; under setting [4], “active; positive”; (Test System: AMES SALMONELLA TYPHIMURIUM, Strain/Indicator: TA1538, Metabolic Activation: RAT, LIVER, S-9, PHENOBARBITAL, Method: STANDARD PLATE) “active; positive”.

In the case of `CCC(Cl)[N+](=O)[O-]` (stereo unspecified), the mutagenic call by setting is: (Test System: AMES SALMONELLA TYPHIMURIUM, Strain/Indicator: TA98, Metabolic Activation: HAMSTER, LIVER, S-9, AROCLOR 1254 (30%), Method: PREINCUBATION) “active; positive”; under setting [1], “active; positive”; (Test System: AMES SALMONELLA TYPHIMURIUM, Strain/Indicator: TA98, Metabolic Activation: RAT, LIVER, S-9, AROCLOR 1254 (30%), Method: PREINCUBATION) “active; positive”; (Test System: AMES SALMONELLA TYPHIMURIUM, Strain/Indicator: TA100, Metabolic Activation: HAMSTER, LIVER, S-9, AROCLOR 1254 (30%), Method: PREINCUBATION) “active; positive”; under setting [2], “active; positive”; (Test System: AMES SALMONELLA TYPHIMURIUM, Strain/Indicator: TA100, Metabolic Activation: RAT, LIVER, S-9, AROCLOR 1254 (30%), Method: PREINCUBATION) “active; positive”.

Turning to `Nc1ccccc1S(=O)(=O)O`, the mutagenic call runs as follows: (Test System: AMES SALMONELLA TYPHIMURIUM, Strain/Indicator: TA97, Metabolic Activation: HAMSTER, LIVER, S-9, AROCLOR 1254 (10 OR 30%), Method: PREINCUBATION) “inactive; negative”; (Test System: AMES SALMONELLA TYPHIMURIUM, Strain/Indicator: TA97, Metabolic Activation: NONE, Method: PREINCUBATION) “inactive; negative”; (Test System: AMES SALMONELLA TYPHIMURIUM, Strain/Indicator: TA97, Metabolic Activation: RAT, LIVER, S-9, AROCLOR 1254 (10%), Method: PREINCUBATION) “inactive; negative”; (Test System: AMES SALMONELLA TYPHIMURIUM, Strain/Indicator: TA97, Metabolic Activation: RAT, LIVER, S-9, AROCLOR 1254 (30%), Method: PREINCUBATION) “inactive; negative”; (Test System: AMES SALMONELLA TYPHIMURIUM, Strain/Indicator: TA98, Metabolic Activation: HAMSTER, LIVER, S-9, AROCLOR 1254 (10 OR 30%), Method: PREINCUBATION) “inactive; negative”; (Test System: AMES SALMONELLA TYPHIMURIUM, Strain/Indicator: TA98, Metabolic Activation: RAT, LIVER, S-9, AROCLOR 1254 (10 OR 30%), Method: PREINCUBATION) “inactive; negative”. Besides, the mutagenic call reads like this: (Test System: AMES SALMONELLA TYPHIMURIUM, Strain/Indicator: TA100, Metabolic Activation: HAMSTER, LIVER, S-9, AROCLOR 1254 (10 OR 30%), Method: PREINCUBATION) “inactive; negative”; under setting [2], “inactive; negative”; (Test System: AMES SALMONELLA TYPHIMURIUM, Strain/Indicator: TA100, Metabolic Activation: RAT, LIVER, S-9, AROCLOR 1254 (10 OR 30%), Method: PREINCUBATION) “inactive; negative”; (Test System: AMES SALMONELLA TYPHIMURIUM, Strain/Indicator: TA1535, Metabolic Activation: HAMSTER, LIVER, S-9, AROCLOR 1254 (10 OR 30%), Method: PREINCUBATION) “inactive; negative”; under setting [5], “inactive; negative”; (Test System: AMES SALMONELLA TYPHIMURIUM, Strain/Indicator: TA1535, Metabolic Activation: RAT, LIVER, S-9, AROCLOR 1254 (10 OR 30%), Method: PREINCUBATION) “inactive; negative”.
